Source: patent USRE42890E1, “Furazanobenzimidazoles” (Basilea Pharmaceutica AG, priority 2003, dated 2011)

How the values were obtained:
[1] = system: MRC5; assay: MTS proliferation assay, MRC5; type: cell-based; details: MRC5, 72 h incubation; read-out: MTS proliferation assay IC 50 MRC5
Protocol: (§1) Cell lines are cultured in RPMI-1640 tissue culture medium containing either 5% or 10% fetal calf serum, 0.05 mM 2-mercaptoethanol, 2 mM glutamine and penicillin/streptomycin 50 μg/ml (complete medium) (Sigma, Buchs, Switzerland). General growth conditions are 37° C. and 7.5% CO2.
(§2) The assay is performed in 96 well tissue culture plates. The cells (range: 1.5*10^3-10^4) are seeded out in 80 μl complete medium 24 h prior to compound treatment. The test compounds are added in 20 μl complete medium containing max 5% DMSO. The final compound concentrations in the assays are 10 μM, 3 μM, 1 μM and 0.3 μM, respectively. The assay plates are incubated for 72 h at culture conditions. The MTS reagent is prepared according to the manufacturer's protocol (Promega G1111). 20 μl MTS reagent are added to each well, the assay plates are quickly spun and incubated for another 3 h at culture conditions. Subsequently, the plates are shortly shaked and absorption measured with a microplate-reader at 492 nm.

[2] = system: adherent cells or suspension cells; assay: Hoechst 33342 nuclear staining (fraction of apoptotic nuclei); type: cell-based; set-up: key: 0 relating to no activity; 1 relating to weak activity comprising less than 70% of the cells; score 2 relating to strong activity comprising more than 70% of the cells
Protocol: as §1
This assay is performed in 96 well tissue culture plates. Appropriate number of cells (adherent cells: 3-5*10^3, suspension cells: 8-10*10^3) are being seeded out in 80 μl complete medium. Adherent cells are incubated for 24 h for proper spreading out before addition of test compounds while suspension cells are immediately treated with test compounds after seeding out. The test compounds are added in 20 μl complete medium containing max 5% DMSO. […] After 24 h or 48 h incubation at culture conditions, 10 μl medium containing Hoechst 33342 dye (Sigma B-2261) at 2-5 μg/ml are added to each well. The assay plates are then further incubated for 30 minutes and subsequently analyzed with a standard inverted fluorescence microscope.
The readout allows the determination of the fraction of apoptotic nuclei as well as other morphological criteria specific for apoptosis as a function of the treatment. The following scores are used: 0 relating to no activity, 1 relating to weak activity comprising less than 70% of the cells and score 2 relating to strong activity comprising more than 70% of the cells.

[3] = system: Jurkat; assay: MTS proliferation assay, Jurkat; type: cell-based, human; details: 72 h incubation, read-out: MTS proliferation assay IC 50 Jurkat
Protocol: as §1
(§3) The following human cell lines (either EGFP transfected or not) are being used: HeLa (ATCC: CCL-2), KB (ATCC: CCL-17), MCF7 (ATCC: HTB-22), SK-BR-3 (ATCC: HTB-30), SK-Mel 1 (ATCC: HTB-67), SK-Mel 28 (ATCC: HTB-72), PC-3 (ATCC: CRL-1435), SW 480 (ATCC: CCL-228), NCl-H460 (ATCC: HTB-177), NCl-H1792 (ATCC: CRL-5895), HT1080 (ATCC: CCL-21), Jurkat (ATCC: TIB-152), Ramos (ATCC: CRL-1596), Raji (ATCC: CCL-86), H9 (ATCC: HTB-176), Hut78 (ATCC: TIB-161), K562 (ATCC: CCL 243), HL-60 (ATCC: CCL 240), U-87MG (ATCC: HTB-14), HepG2 (ATCC: HB-8065), U-2 OS (ATCC: HTB-96), Saos-2 (ATCC: HTB-85), U937 (ATCC: CRL 1593), Hs 578T (ATCC: HTB 126), HBL-100 (ATCC: HTB 124), Molt-4 (ATCC: CRL 1582).
as §2

[4] = system: HeLa; assay: MTS proliferation assay, HeLa; type: cell-based, human; details: 72 h incubation, read-out: MTS proliferation assay IC 50 HeLa
Protocol: as §1, §3, §2

Row | IC50 [3] [nM] | IC50 [4] [nM] | SMILES | IC50 [1] [nM] | Hoechst 33342 nuclear staining score ([2]; H460, conc 0.01 μm) | Hoechst 33342 nuclear staining score ([2]; H460, conc 0.1 μm) | Hoechst 33342 nuclear staining score ([2]; H460, conc 1 μm) | Hoechst 33342 nuclear staining score ([2]; HeLa, conc 0.01 μm) | Hoechst 33342 nuclear staining score ([2]; HeLa, conc 0.1 μm) | Hoechst 33342 nuclear staining score ([2]; HeLa, conc 1 μm) | Hoechst 33342 nuclear staining score ([2]; Jily, conc 0.01 μm) | Hoechst 33342 nuclear staining score ([2]; Jily, conc 0.1 μm) | Hoechst 33342 nuclear staining score ([2]; Jurkat, conc 0.01 μm) | Hoechst 33342 nuclear staining score ([2]; Jurkat, conc 0.1 μm) | Hoechst 33342 nuclear staining score ([2]; Jurkat, conc 1 μm) | Hoechst 33342 nuclear staining score ([2]; MRC5, conc 0.01 μm) | Hoechst 33342 nuclear staining score ([2]; MRC5, conc 0.1 μm) | Hoechst 33342 nuclear staining score ([2]; MRC5, conc 1 μm) | Hoechst 33342 nuclear staining score ([2]; PBLs, conc 0.01 μm) | Hoechst 33342 nuclear staining score ([2]; PBLs, conc 0.1 μm) | Hoechst 33342 nuclear staining score ([2]; PBLs, conc 1 μm) | further results
1 | > 1000 | > 1000 | COc1cccc(C(Cn2c(-c3nonc3N)nc3ccccc32)=NO)c1 (mixture of isomers) [Example 24] | > 1000 | 0 | 0 | 0 | 0 | 0 | 0 | 0 | 0 | 0 | 0 | 0 | 0 | 0 | 0 | 0 | 0 | 0 | Hoechst 33342 nuclear staining score ([2]; Jily, conc 1 μm): 0
2 | > 1000 | > 1000 | Nc1nonc1-c1nc2ccccc2n1CC(=NO)c1ccc(-c2ccccc2)cc1 (mixture of isomers) [Example 27] | > 1000 | 0 | 0 | 0 | 0 | 0 | 0 |  |  | 0 | 0 | 0 | 0 | 0 | 0 | 0 | 0 | 0 | 

Further lines, the compound ahead of its results:

Row | SMILES | IC50 [3] [nM] | IC50 [4] [nM] | IC50 [1] [nM] | Hoechst 33342 nuclear staining score ([2]; H460, conc 0.01 μm) | Hoechst 33342 nuclear staining score ([2]; H460, conc 0.1 μm) | Hoechst 33342 nuclear staining score ([2]; H460, conc 1 μm) | Hoechst 33342 nuclear staining score ([2]; HeLa, conc 0.01 μm) | Hoechst 33342 nuclear staining score ([2]; HeLa, conc 0.1 μm) | Hoechst 33342 nuclear staining score ([2]; HeLa, conc 1 μm) | Hoechst 33342 nuclear staining score ([2]; Jily, conc 0.01 μm) | Hoechst 33342 nuclear staining score ([2]; Jily, conc 0.1 μm) | Hoechst 33342 nuclear staining score ([2]; Jurkat, conc 0.01 μm) | Hoechst 33342 nuclear staining score ([2]; Jurkat, conc 0.1 μm) | Hoechst 33342 nuclear staining score ([2]; Jurkat, conc 1 μm) | Hoechst 33342 nuclear staining score ([2]; MRC5, conc 0.01 μm) | Hoechst 33342 nuclear staining score ([2]; MRC5, conc 0.1 μm) | Hoechst 33342 nuclear staining score ([2]; MRC5, conc 1 μm) | Hoechst 33342 nuclear staining score ([2]; PBLs, conc 0.01 μm) | Hoechst 33342 nuclear staining score ([2]; PBLs, conc 0.1 μm) | Hoechst 33342 nuclear staining score ([2]; PBLs, conc 1 μm) | further results
3 | CON=C(Cn1c(-c2nonc2N)nc2ccccc21)c1cccc(OC)c1 (mixture of isomers) [Example 25] | 100 to 1000 | > 1000 | > 1000 | 0 | 0 | 0 | 0 | 0 | 0 | 0 | 0 | 0 | 0 | 1 (1 relating to weak activity comprising less than 70% of the cells) | 0 | 0 | 0 | 0 | 0 | 0 | Hoechst 33342 nuclear staining score ([2]; Jily, conc 1 μm): 0
4 | CON=C(Cn1c(-c2nonc2N)nc2ccccc21)c1ccc(-c2ccccc2)cc1 (mixture of isomers) [Example 28] | > 1000 | > 1000 | > 1000 | 0 | 0 | 0 | 0 | 0 | 0 | 0 | 0 | 0 | 0 | 0 | 0 | 0 | 0 | 0 | 0 | 0 | Hoechst 33342 nuclear staining score ([2]; Jily, conc 1 μm): 0
5 | Nc1nonc1-c1nc2ccccc2n1CC(=NO)c1ccccc1Cl (mixture of isomers) [Example 33] | > 1000 | > 1000 | > 1000 | 0 | 0 | 0 | 0 | 0 | 0 | 0 | 0 | 0 | 0 | 0 | 0 | 0 | 0 | 0 | 0 | 0 | Hoechst 33342 nuclear staining score ([2]; Jily, conc 1 μm): 0
6 | CON=C(Cn1c(-c2nonc2N)nc2ccccc21)c1ccccc1Cl (mixture of isomers) [Example 34] | > 1000 | > 1000 | > 1000 | 0 | 0 | 0 | 0 | 0 | 0 | 0 | 0 | 0 | 0 | 0 | 0 | 0 | 0 | 0 | 0 | 0 | Hoechst 33342 nuclear staining score ([2]; Jily, conc 1 μm): 0
